This note sets out measurements from patent publication US9901649B2, “Block copolymers for therapeutic drug delivery” (INTERNATIONAL BUSINESS MACHINES CORPORATION, priority 2016, dated 2018).

Series [1] is described as follows: Mouse body weight change during the in vivo treatments. Details: species or system female BALB/c nude mice. Particulars: nude mice bearing BT-474 xenografts; DOX 5 mg/kg, tail vein injection at day 0, 3, 6 and 10. As for the experimental part:
Female BALB/c nude mice were provided by Singapore Biological Research Center (BRC) at 6 weeks of age (20-22 g). All animal studies were adhered to protocols approved by the Singapore BRC's Institutional Animal Care and Use Committee. BT-474 cells (1×10^7) were suspended in 200 microliters of a solution containing Matrigel and PBS (volume ratio: 50/50) and subcutaneously injected into the right flank of female BALB/c nude mice. Estradiol pellet (0.72 mg/pellet, 60 days release) was subcutaneously administered into mice one day before the inoculation. Once the tumor volume reached about 200 mm^3 on the 14th day (recorded as day 0), the mice were randomly divided into 5 groups (7-8 animals per group): group 1 for 0.9% saline as control, group 2 for blank particles, group 3 for free DOX, group 4 for DOX-loaded particles LM-1, and group 5 for DOX-loaded particles LM-2. The dose of DOX in all formulations was 5 mg/kg. The formulations were given to mice via tail vein injection at day 0, 3, 6 and 10. At the predetermined time points, mice were weighed and tumor size was measured with a Vernier caliper. The tumor volume was calculated using the following formula: Tumor volume=length×width^2/2.

A further series concerns NCCFH-01 cells. The series can be described thus: In vitro cytotoxicity, MTT assay. The series is classed as cell-based. The following applies: 48 hours, 37° C., pH 7.4, read-out: half maximal inhibitory concentration IC50. As for the experimental part: BT-474 human breast cancer cell line was purchased from ATCC (Manassas, Va., U.S.A). Hereditary leiomyomastosis and renal cancer cells (NCCFH-01 cell line) was obtained from Dr. Min-Han Tan, Institute of Bioengineering and Nanotechnology, Singapore. Cells were cultured in RPMI-1640 medium containing 25 mM Hepes and L-Glutamine (Lonza, Singapore) supplemented with 10% fetal bovine serum (FBS), 100 U/mL penicillin and 100 μg/mL streptomycin at 37° C. in 5% CO2. 3-[4,5-Dimenthylthiazol-2-yl]-2,5-diphenyl tetrazolium bromide (MTT) was dissolved in phosphate-buffered saline (PBS, pH 7.4) with a concentration of 5 mg/mL, and the solution was filtered with a 0.22 micrometer filter to remove blue formazan crystals prior to usage.
Cytotoxicity of free DOX, DOX-loaded particles, and blank particles was determined through MTT assay. BT-474 cells and NCCFH-01 cells were seeded into 96-well plates at a density of 5×10^3 cells per well and incubated overnight in 100 microliters of RPMI-1640 containing 25 mM Hepes and L-Glutamine, supplemented with 10% FBS and 5% penicillin-streptomycin at 37 C, 5% CO2. […] After gentle agitation for 15 minutes, the absorbance of formazan crystals was taken to be that at 550 nm subtracted by that at 690 nm (TECAN, Switzerland). Cell viability was expressed as a percentage of absorbance of the control cells.

Values after ≈ are worked out from the molar mass of the structure shown.

`COc1cccc2c1C(=O)c1c(O)c3c(c(O)c1C2=O)C[C@@](O)(C(=O)CO)C[C@@H]3O[C@H]1C[C@H](N)[C@H](O)[C@H](C)O1` [DOX, Doxorubicin]: the body weight loss in series [1] is listed as 20%. For the same compound, in the series on NCCFH-01 cells, the IC50 stood at 12.7 µg/mL (≈ 23.4 µM).
